From patent US12171203B2, “Transgenic biosensor” (KDT, Inc., priority 2011, dated 2024)

Key:
Type in all cases: in vivo, C. elegans
[1] = tested on: hsp-16's (hsp-16.2, hsp-16.41) promoter reporters; assay: two-color nematode biosensor panel, plate reader assay, hsp-16 reporters; conditions: cadmium 1 mM, NGM plates, 15 hrs; population-normalized change relative to unexposed control
Source text: (§1) Responses are population-normalized changes relative to unexposed control. Error bars indicate […] of 2 to 6 independent measurements. The label “2 line” indicates data derived from combining responses of two independently-derived MosSCI lines for the same reporter.
(§2) The seven different promoters used to create the lines were obtained from genes involved in oxidative stress response. Two genes used were alpha cystallins which respond to cytoplasmic heat shock (hsp-16.2 and hsp-16.41) (David et al. Environ. Toxicol. Chem 2003 January; 22(1):111-118; Hong et al. J. Mol. Biol 2004 November; 344(2):369-381; Candido E P M. Prog. Mol. Subcell. Biol 2002; 28:61-78; Dengg et al. J Pharmacol Toxicol Methods 2004 December; 50(3):209-214; and Strayer et al. FASEB J 2003 December; 17(15):2305-2307). […] The resulting hsRFP reporter construct expresses red fluorescence in cell nuclei. […]
(§3) Changes in expression were quantified with a plate reader assay. […]

[2] = tested on: metallothionein gene (mtl-2) promoter reporter; assay: two-color nematode biosensor panel, plate reader assay, mtl-2 reporter; conditions: cadmium 1 mM, NGM plates, 15 hrs; population-normalized change relative to unexposed control
Source text: as §1, §2, §3

ugt-1 promoter reporter = assay: two-color nematode biosensor panel, plate reader assay, ugt-1 reporter; conditions: cadmium 1 mM, NGM plates, 15 hrs; population-normalized change relative to unexposed control
Source text: as §1, §2, §3

nematode population = assay: chronic toxin exposure, effect on nematode population size; conditions: chronic exposure for 72 hrs, various concentrations
Procedure: FIGS. 4A, B, and C show the population effects of chronic toxin exposure.
Advantageously, the transgenic animals described in these examples can have a control reporter (e.g., constitutively expressed). Exposure to some selected agents or toxins can lead to shortened life-span, lower brood sizes or other effects that need to be controlled. The problem becomes most pronounced in chronic assays. […] Thus, it was determined a control for population mass differences between assay wells is desirable. Introduction of a second constitutively expressed reporter gene can be used to control for various population differences.

Phsp-16::hRFP reporter = assay: fluorescent plate reader assay of toxin dosage sensitivity, hsp-16::hRFP nematodes; conditions: 24 hr exposure, ~600 worms per well, assayed in triplicate; read-out: EC50 of red fluorescence response of Phsp-16::hRFP reporter
Source text: FIGS. 3A, B, and C show the fluorescence plate-reader sensitivity and toxin response.
For instance, a protein homeostasis reporter was created by fusing heat shock protein to a nuclear localized red fluorescent protein (hsp-16.42::hRFP)(the materials and methods for the construction of the transgenic organism are described in more detail in the examples below). Exposure to heat toxicity generates induction of nuclear localization. This heat shock gene reporter was screened for gene induction capacity using a heat-shock protocol. The hsp-16::hRFP construct is exposed to a 1 hr incubation at 30 C. Gene induction was screened 4 to 24 hrs after heat shock. Significant red fluorescence is observed in the nuclei of heat-shocked worm relative to control (FIG. 5).
Toxin sensitivity of hsp-16 was confirmed with exposure to heavy metals and metalloids. To develop a rapid screen for the hsp-16::hRFP expression, a fluorescent plate reader assay was developed. To test the sensitivity of this assay, a titrating concentration of nematodes were exposed to heat shock. The worms were transferred to a 96 well plate and red fluorescence was quantified. Good sensitivity for a red fluorescence signal occurs at concentrations of 50 or more worms (FIG. 3A). Next, the toxin dosage sensitivity was measured.

hsp-4 promoter reporter = assay: two-color nematode biosensor panel, plate reader assay, hsp-4 reporter; conditions: cadmium 1 mM, NGM plates, 15 hrs; population-normalized change relative to unexposed control
Source text: as §1, §2, §3

Compound | induction of expression from hsp-16's reporters [1] | induction of metallothionein gene expression (reporter) [2] | induction of expression from ugt-1 reporter (ugt-1 promoter reporter) | effect on population size (nematode population) | EC50 (Phsp-16::hRFP reporter) | induction of expression from hsp-4 reporter (hsp-4 promoter reporter)
[Cl][Cd][Cl] [cadmium, cadmium chloride] | only mildly induced | primarily induced | only mildly induced | significant population effects | ~200 µM | only mildly induced
sodium bis-arsenite [arsenic] |  |  |  |  | ~1500 µM | 
